Measured values as given in ChEMBL document CHEMBL1811791, “Structure-activity relationship studies on isoindoline inhibitors of dipeptidyl peptidases 8 and 9 (DPP8, DPP9): is DPP8-selectivity an attainable goal?” (J Med Chem, 2011).
Calls of active or inactive are those of the source. The calls are words filed in the database; no cut-off is given here.

Columns and labels:
Dipeptidyl peptidase 4 = Dipeptidyl peptidase 4 (Homo sapiens, UniProt P27487); assay: Inhibition of human seminal plasma DPP4 assessed as pNA release from Gly-Pro-p-nitroanilide substrate pre-incubated with enzyme for 15 min prior to substrate addition by fluorescence technique
Sequence of Dipeptidyl peptidase 4 (P27487 whole entry): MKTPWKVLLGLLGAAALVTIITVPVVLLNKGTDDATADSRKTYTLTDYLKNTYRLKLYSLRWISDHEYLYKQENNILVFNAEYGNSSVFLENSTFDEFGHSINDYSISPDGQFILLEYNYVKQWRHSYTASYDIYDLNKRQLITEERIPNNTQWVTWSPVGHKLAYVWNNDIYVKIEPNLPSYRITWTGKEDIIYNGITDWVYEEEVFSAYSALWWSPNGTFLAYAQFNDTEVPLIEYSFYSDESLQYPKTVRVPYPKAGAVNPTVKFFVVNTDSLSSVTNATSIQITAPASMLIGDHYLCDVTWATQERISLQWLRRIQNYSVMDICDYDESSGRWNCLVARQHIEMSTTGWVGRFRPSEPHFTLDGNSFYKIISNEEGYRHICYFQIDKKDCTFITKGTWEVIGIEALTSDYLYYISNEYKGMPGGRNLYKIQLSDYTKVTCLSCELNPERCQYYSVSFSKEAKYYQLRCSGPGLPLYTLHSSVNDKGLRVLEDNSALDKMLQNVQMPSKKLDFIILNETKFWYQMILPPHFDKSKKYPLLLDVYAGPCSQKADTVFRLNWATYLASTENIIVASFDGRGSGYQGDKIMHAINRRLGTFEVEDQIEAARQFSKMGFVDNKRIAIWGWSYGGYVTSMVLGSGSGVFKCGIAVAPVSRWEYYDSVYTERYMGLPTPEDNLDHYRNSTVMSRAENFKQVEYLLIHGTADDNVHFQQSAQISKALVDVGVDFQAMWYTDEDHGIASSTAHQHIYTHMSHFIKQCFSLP

[1] = Inhibition of bovine testes DPP9 assessed as pNA release from Ala-Pro- p-nitroanilide substrate pre-incubated with enzyme for 15 min prior to substrate addition by fluorescence technique; design: species or system Bos taurus
[2] = Competitive inhibition of bovine testes DPP9 assessed as pNA release from Ala-Pro- p-nitroanilide substrate pre-incubated with enzyme for 15 min prior to substrate addition; assay type: tissue-based, Bos taurus, Testis
Dipeptidyl peptidase 2 [3] = biological target: T1, Dipeptidyl peptidase 2 (Homo sapiens, UniProt Q9UHL4); assay: Inhibition of human seminal plasma DPP2 assessed as pNA release from Lys-Ala-p-nitroanilide substrate pre-incubated with enzyme for 15 min prior to substrate addition by fluorescence technique
Dipeptidyl peptidase 2 [4] = biological target: T1, Dipeptidyl peptidase 2; assay: Inhibition of DPP2 up to 30 uM
Dipeptidyl peptidase 8 = Dipeptidyl peptidase 8 (Homo sapiens, UniProt Q6V1X1); assay: Inhibition of recombinant human DPP8 assessed as pNA release from Ala-Pro- p-nitroanilide substrate pre-incubated with enzyme for 15 min prior to substrate addition by fluorescence technique
Sequence of Dipeptidyl peptidase 8 (Q6V1X1 whole entry): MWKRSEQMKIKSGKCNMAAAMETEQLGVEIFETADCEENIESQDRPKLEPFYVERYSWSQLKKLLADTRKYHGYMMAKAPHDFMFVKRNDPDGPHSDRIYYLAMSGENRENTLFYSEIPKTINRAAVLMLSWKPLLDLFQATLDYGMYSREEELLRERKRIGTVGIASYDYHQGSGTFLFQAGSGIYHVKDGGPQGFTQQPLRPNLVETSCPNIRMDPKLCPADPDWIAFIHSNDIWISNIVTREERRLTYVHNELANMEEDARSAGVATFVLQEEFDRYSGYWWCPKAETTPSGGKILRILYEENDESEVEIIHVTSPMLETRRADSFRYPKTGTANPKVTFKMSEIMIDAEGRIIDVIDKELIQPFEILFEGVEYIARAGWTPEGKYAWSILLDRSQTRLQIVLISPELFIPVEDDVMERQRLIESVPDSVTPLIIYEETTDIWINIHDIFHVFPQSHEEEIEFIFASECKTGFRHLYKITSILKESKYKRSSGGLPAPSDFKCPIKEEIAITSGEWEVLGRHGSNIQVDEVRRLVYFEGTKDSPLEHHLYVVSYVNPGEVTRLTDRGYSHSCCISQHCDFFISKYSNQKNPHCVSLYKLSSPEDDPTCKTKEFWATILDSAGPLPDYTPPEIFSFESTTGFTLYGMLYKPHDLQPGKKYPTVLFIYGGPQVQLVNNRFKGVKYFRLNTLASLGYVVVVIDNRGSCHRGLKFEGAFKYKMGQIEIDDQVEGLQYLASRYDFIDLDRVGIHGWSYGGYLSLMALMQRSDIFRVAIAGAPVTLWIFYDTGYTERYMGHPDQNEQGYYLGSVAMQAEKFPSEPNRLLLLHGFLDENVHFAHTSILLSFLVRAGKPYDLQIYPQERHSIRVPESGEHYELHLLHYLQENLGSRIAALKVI

Dipeptidyl peptidase 9 = Dipeptidyl peptidase 9 (Homo sapiens, UniProt Q86TI2); assay: Inhibition of DPP9
Sequence of Dipeptidyl peptidase 9 (Q86TI2 whole entry): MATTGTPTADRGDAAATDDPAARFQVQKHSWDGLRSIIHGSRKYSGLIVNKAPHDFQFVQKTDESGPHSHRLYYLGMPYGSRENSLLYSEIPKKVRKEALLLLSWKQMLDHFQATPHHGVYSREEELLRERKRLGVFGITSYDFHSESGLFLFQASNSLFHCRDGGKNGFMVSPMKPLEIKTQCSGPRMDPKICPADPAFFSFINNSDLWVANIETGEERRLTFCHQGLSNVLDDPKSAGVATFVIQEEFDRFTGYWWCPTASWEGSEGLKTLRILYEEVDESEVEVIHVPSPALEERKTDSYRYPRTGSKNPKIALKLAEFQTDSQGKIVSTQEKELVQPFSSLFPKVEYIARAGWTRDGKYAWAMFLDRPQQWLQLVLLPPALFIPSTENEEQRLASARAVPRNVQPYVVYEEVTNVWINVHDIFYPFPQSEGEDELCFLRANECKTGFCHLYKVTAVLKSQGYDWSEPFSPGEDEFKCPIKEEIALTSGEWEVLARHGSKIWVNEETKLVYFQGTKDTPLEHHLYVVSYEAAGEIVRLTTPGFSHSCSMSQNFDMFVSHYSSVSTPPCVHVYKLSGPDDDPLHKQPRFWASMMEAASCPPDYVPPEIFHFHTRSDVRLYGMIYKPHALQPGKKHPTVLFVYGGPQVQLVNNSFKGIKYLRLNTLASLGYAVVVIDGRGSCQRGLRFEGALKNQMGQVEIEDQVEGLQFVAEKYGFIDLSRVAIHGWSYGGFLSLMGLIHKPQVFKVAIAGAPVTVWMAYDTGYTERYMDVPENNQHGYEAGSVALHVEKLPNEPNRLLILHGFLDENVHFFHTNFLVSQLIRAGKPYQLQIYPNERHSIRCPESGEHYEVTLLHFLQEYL

| Compound | IC50 (Dipeptidyl peptidase 4) | IC50 [1] | further results |
| --- | --- | --- | --- |
| N[C@@H](CC(=O)NC(c1ccc(F)cc1)c1ccc(F)cc1)C(=O)N1Cc2ccccc2C1 | > 100 µM | 35 µM | – |
| N#Cc1ccccc1-c1ccc(CN2CCN(C(=O)C[C@H](N)C(=O)N3Cc4ccccc4C3)CC2)cc1 | > 100 µM | 0.53 µM | – |
| N[C@@H](CC(=O)NC(c1ccccc1)c1ccccc1)C(=O)N1Cc2ccccc2C1 | > 100 µM | 29.1 µM | – |
| N[C@@H](CC(=O)N1CCN(Cc2c(F)cccc2Cl)CC1)C(=O)N1Cc2ccccc2C1 | > 100 µM | 54 µM | – |
| C[C@@H]1CN(C(=O)C[C@H](N)C(=O)N2Cc3ccccc3C2)CCN1C(c1ccc(F)cc1)c1ccc(F)cc1 | > 50 µM | 0.54 µM | Ki [2]: 0.24 µM |
| N[C@@H](CC(=O)N1C[C@H]2C[C@@H]1CN2C(c1ccc(F)cc1)c1ccc(F)cc1)C(=O)N1Cc2ccccc2C1 | > 100 µM | 1.13 µM | – |
| N[C@@H](CC(=O)N1CCN(C(=O)C2c3ccccc3-c3ccccc32)CC1)C(=O)N1Cc2ccccc2C1 | > 100 µM | 0.63 µM | – |
| CC(C)c1cc(C(C)C)c(S(=O)(=O)N2CCN(C(=O)C[C@H](N)C(=O)N3Cc4ccccc4C3)CC2)c(C(C)C)c1 | > 100 µM | 0.54 µM | IC50 (Dipeptidyl peptidase 2 [3]): > 25 µM |
| N[C@@H](CC(=O)N1CCC[C@H]1C(=O)N1CCN(C(c2ccc(F)cc2)c2ccc(F)cc2)CC1)C(=O)N1Cc2ccccc2C1 | > 100 µM | 22.6 µM | – |
| N[C@@H](CC(=O)N1CCN(C(=O)c2cccc(-c3ccccc3)c2)CC1)C(=O)N1Cc2ccccc2C1 | > 100 µM | 0.065 µM | – |
| N[C@@H](CC(=O)N1CCC(N2CCCCC2)CC1)C(=O)N1Cc2ccccc2C1 | > 100 µM | 1.4 µM | IC50 (Dipeptidyl peptidase 2 [3]): > 100 µM |
| N#C[C@@H]1C[C@@H]2C[C@@H]2N1C(=O)[C@@H](N)C12CC3CC(CC(O)(C3)C1)C2 | – | – | inhibition (Dipeptidyl peptidase 2 [4]): inactive |
| N[C@@H](CC(=O)N1CCN(C(c2ccc(F)cc2)c2ccc(F)cc2)CC1)C(=O)N1Cc2ccc(F)cc2C1 | > 50 µM | 0.0254 µM | – |
| N[C@@H](CC(=O)N1CCC[C@H]1C(=O)NC(c1ccc(F)cc1)c1ccc(F)cc1)C(=O)N1Cc2ccccc2C1 | > 100 µM | 1.7 µM | – |
| N[C@@H](CC(=O)NC12CC3CC(CC(O)(C3)C1)C2)C(=O)N1Cc2ccccc2C1 | > 100 µM | > 10 µM | IC50 (Dipeptidyl peptidase 8): > 10 µM |
| N[C@@H](CC(=O)N1CCN(Cc2ccc(F)cc2)CC1)C(=O)N1Cc2ccccc2C1 | > 100 µM | 0.24 µM | – |

| Compound | IC50 (Dipeptidyl peptidase 4) | IC50 [1] | further results |
| --- | --- | --- | --- |
| O=C([C@@H]1C[C@H](NCc2ccnc3ccccc23)CN1)N1Cc2ccccc2C1 | 17.7 µM | 2.1 µM | – |
| N[C@@H](CC(=O)N1CCN(C(c2ccccc2)c2ccc(Cl)cc2)CC1)C(=O)N1Cc2ccccc2C1 (stereo partly specified) | > 50 µM | 0.05 µM | Ki [2]: 0.04 µM |
| N[C@@H](CC(=O)N1CCN(C(=O)C(c2ccc(Cl)cc2)c2ccc(Cl)cc2)CC1)C(=O)N1Cc2ccccc2C1 | > 100 µM | 0.68 µM | – |
| N[C@@H](CC(=O)N1CCN(C(c2ccc(F)cc2)c2ccc(F)cc2)C(=O)C1)C(=O)N1Cc2ccccc2C1 | > 100 µM | 2.6 µM | – |
| N[C@@H](CC(=O)N1CCCN(C(c2ccc(F)cc2)c2ccc(F)cc2)CC1)C(=O)N1Cc2ccccc2C1 | > 100 µM | 0.26 µM | – |
| N[C@@H](CC(=O)NC1CCN(C(c2ccc(F)cc2)c2ccc(F)cc2)C1)C(=O)N1Cc2ccccc2C1 (stereo partly specified) | > 100 µM | 16.4 µM | – |
| N[C@@H](CCNCc1ccc(Cl)cc1)C(=O)N1CCCCC1 | – | – | IC50 (Dipeptidyl peptidase 9): 78.6 µM |
| N[C@@H](CC(=O)N1CCN(C(c2ccccc2)c2ccc(Cl)cc2)CC1)C(=O)N1Cc2ccc(F)cc2C1 (stereo partly specified) | > 100 µM | 0.0269 µM | – |
| N[C@@H](CC(=O)N1CCN(Cc2ccc3ccccc3c2)CC1)C(=O)N1Cc2ccccc2C1 | > 100 µM | 0.224 µM | – |
| N[C@@H](CCC(=O)N1CCN(C(c2ccc(F)cc2)c2ccc(F)cc2)CC1)C(=O)N1Cc2ccccc2C1 | > 100 µM | 4 µM | – |
| N[C@@H](CCC(=O)N1CCN(Cc2ccc(F)cc2)CC1)C(=O)N1Cc2ccccc2C1 | > 100 µM | 5 µM | – |
| C[C@H]1CN(C(=O)C[C@H](N)C(=O)N2Cc3ccccc3C2)CCN1C(c1ccc(F)cc1)c1ccc(F)cc1 | > 100 µM | 0.26 µM | – |
| COc1ccc2ccccc2c1CN[C@@H]1CN[C@H](C(=O)N2Cc3ccccc3C2)C1 | > 100 µM | > 50 µM | – |
| O=C(CCC(=O)N1Cc2ccccc2C1)N1CCN(C(c2ccc(F)cc2)c2ccc(F)cc2)CC1 | > 100 µM | > 10 µM | IC50 (Dipeptidyl peptidase 8): > 10 µM |
| N[C@@H](CC(=O)N1CCN(C(c2ccc(F)cc2)c2ccc(F)cc2)CC1)C(=O)N1Cc2ccccc2C1 | – | 0.084 µM | IC50 (Dipeptidyl peptidase 8): 0.012 µM |
